Laboratory results: US11691989B2, “Macrocyclic indoles as Mcl-1 inhibitors” (ASCENTAGE PHARMA (SUZHOU) CO., LTD., priority 2018, dated 2023)
In brackets after ≈: the same amount, converted by molar mass. Where two headings read alike, the source gives them in different places.

Columns and labels:
[1] = target: Mcl-1 protein (residues 171-323) (Homo sapiens (Human), UniProt Q07820); test: Inhibition of Mcl-1 by fluorescence polarization (FP) competitive binding assay with FAM-Bid tracer; details: 2 nM FAM-Bid, 20 nM Mcl-1, 30 min, read-out: Mc1-1 (FP)
Mcl-1 protein (residues 171-323), sequence (Q07820 171-323): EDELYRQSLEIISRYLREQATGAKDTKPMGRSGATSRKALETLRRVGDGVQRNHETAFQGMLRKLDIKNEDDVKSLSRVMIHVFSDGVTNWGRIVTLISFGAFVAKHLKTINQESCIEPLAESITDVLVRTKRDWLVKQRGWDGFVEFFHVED
Procedure, shortened: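 Competitive FP binding of compounds against FAM-Bid tracer (final 2 nM) on Mcl-1 (final 20 nM) in PBS with 0.01% BGG and 0.01% Triton X-100, 5% final DMSO.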

[2] = tested on: OPM-2 cells; test: Cell viability assay (OPM-2 cells), CCK-8; format: cell-based; details: 5% FBS
Procedure, shortened: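 OPM-2 myeloma cells (20000/well) incubated with serially diluted compound for 24 h at 37 °C, 5% CO2. Viability read by CCK-8 (4 h) absorbance at 450 nm, normalised to vehicle; IC50 from nonlinear regression.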

[3] = tested on: NCI-H929 cells; test: Cell viability assay (NCI-H929 cells), CCK-8; format: cell-based; details: 5% FBS
Procedure, shortened: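 NCI-H929 cells (20000/well) exposed to serially diluted compounds for 24 h at 37 °C, 5% CO2. Viability by CCK-8, absorbance at 450 nm after 1-4 h, normalized to vehicle-treated cells. IC50 by nonlinear regression.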

[4] = Microsome clearance assay, mouse; format: in vitro ADME; details: 0.5 mg/ml protein, 1 mM NADPH, 60 minutes; for Mouse Liver Microsome Clint (μL/min/mg protein): mouse liver microsomes, 5 μM; for microsomal CLint at 5 μM: male, CD-1, mouse, pooled liver microsomes, pH 7.4, mouse liver microsomes, read-out: Mouse Liver Microsome Clint (μL/min/mg protein)
Procedure, shortened: (§1)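 Pooled liver microsomes (human, male Wistar rat, male CD-1 mouse) at 0.5 mg/ml protein in 0.1M sodium phosphate pH 7.4 with 5 μM test compound and 1 mM NADPH, incubated 60 minutes. Reactions quenched in ice-cold methanol; supernatant analysed by LC/MS/MS (electrospray).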

[5] = Microsome clearance assay, rat; format: in vitro ADME; details: 0.5 mg/ml protein, 1 mM NADPH, 60 minutes; for Rat Liver Microsome Clint (μL/min/mg protein): rat liver microsomes, 5 μM; for microsomal CLint at 5 μM: male, Wister, rat, pooled liver microsomes, pH 7.4, rat liver microsomes, read-out: Rat Liver Microsome Clint (μL/min/mg protein)
Procedure, shortened: as §1

[6] = Microsome clearance assay, human; format: in vitro ADME; details: 0.5 mg/ml protein, 1 mM NADPH, 60 minutes; for Human Liver Microsome Clint (μL/min/mg protein): human liver microsomes, 5 μM; for microsomal CLint at 5 μM: human, pooled liver microsomes, pH 7.4, human liver microsomes, read-out: Human Liver Microsome Clint (μL/min/mg protein)
Procedure, shortened: as §1

[7] = tested on: MV-4-11 cells; test: MV-4-11 cell viability assay, CCK-8; format: cell-based
Procedure: MV-4-11 cells were obtained from American Type Culture Collection (ATCC). […]
The effect of representative Compounds of the Disclosure on cell viability was determined using Cell Counting Kit-8 (CCK-8) assay according to the manufacturer's instructions. 95 μL of MV-4-11 cell suspension (20000 cells/well) in culture medium were seeded into 96-well plates and cultured 4 hrs. Each tested compound was serially diluted in DMSO, then 5 μL of the compound or DMSO was diluted in 95 μL medium once more. At last, 5 μL of the compound dilution was added to the corresponding well of the cell plate. After the addition of the tested compound, the cells were incubated at 37° C. in an atmosphere of 5% CO2 for 24 hrs. At the end, 10 μL of CCK-8 solution was added to each well of the plate and incubated for 1-4 hrs. The plates were read at 450 nm on the microplate reader (BioTek Synergy 1MF). The readings were normalized to the vehicle cells, and the IC50 was calculated by nonlinear regression analysis using GraphPad Prism 6 software.

[8] = Kinetic solubility assay in PBS buffer; format: physicochemical; details: PBS buffer, pH 6.5, aqueous buffer, thermodynamic from solid, read-out: Solubility (pH 6.5, μg/mL)
Procedure: Representative Compounds of the Disclosure were tested in a kinetic solubility assay in PBS buffer. PBS buffer was prepared by dissolving 4.86 g of potassium dihydrogen phosphate and 5.09 g of disodium hydrogen phosphate dodecahydrate in 1 L of ultrapure water (final pH 6.5). 0.5 mg of test sample was dissolved in 1 mL of methanol and the stock solution was transferred into 2 mL EP tube, and evaporated at 50° C. for 3 h. To the tube was added 1 mL of PBS buffer and the mixture was stirred and shaken for 1-2 h. The solution was allowed to stand overnight and then filtered before HPLC analysis. Another 1.5 mg of the sample was dissolved in 3 mL of methanol to prepare a calibration curve with a series of concentration range of 5-500 μM. The solubility of each sample was determined by the measured peak area in HPLC.

[9] = read-out: MV-4-11 IC50 (5% FBS), MV-4-11 cells, 5% FBS, 24 hrs, CCK-8
[10] = Homo sapiens, MV4-11, 24 h, read-out: MV-4-11 IC50 (5% FBS, nM), MV-4-11 cells, 5% FBS, 24 hrs, CCK-8

Row | SMILES | IC50 [1] | IC50 ([2]; 24 hours) | IC50 ([3]; 24 hrs) | Mouse Liver Microsome Clint (μL/min/mg protein) [4] | Rat Liver Microsome Clint (μL/min/mg protein) [5] | Human Liver Microsome Clint (μL/min/mg protein) [6] | IC50 [7, 9] | IC50 ([2]; Homo sapiens, OPM-2, 24 h) | IC50 ([3]; Homo sapiens, NCI-H929, 24 h) | microsomal CLint at 5 μM [4] | microsomal CLint at 5 μM [5] | microsomal CLint at 5 μM [6] | IC50 [7, 10] | solubility [8]
1 | Cc1c(C(=O)O)n2c3ccc(Cl)c(c13)-c1c(nn(C)c1C)CSCc1cc(n(C)n1)CSc1cc(c3ccccc3c1)OCCC2 (atropisomer, axis not shown) [Cpd. No. 6, (R)-(Z)-1^5-chloro-1^3,2^1,2^5,6^1-tetramethyl-1^1H,2^1H,6^1H-10-oxa-4,8-dithia-1(4,1)-indola-2(4,3), 6(3,5)-dipyrazola-9(3,1)-naphthalenacyclotridecaphane-1^2-carboxylic acid] | 9 nM | 136 nM | 39 nM | 23.6 μL/min/mg protein | 21.0 μL/min/mg protein | <2.8 μL/min/mg protein | 29 nM | – | – | – | – | – | – | –
2 | Cc1c(C(=O)O)n2c3ccc(Cl)c(c13)-c1c(nn(C)c1C)CSCc1cc(n(C)n1)CSc1cc(c3ccc(F)cc3c1)OCCC2 (atropisomer, axis not shown) [Cpd. No. 15, (R)-(Z)-1^5-chloro-9^6-fluoro-1^3,2^1,2^5,6^1-tetramethyl-1^1H,2^1H,6^1E-10-oxa-4,8-dithia-1(4,1)-indola-2(4,3),6(3,5)-dipyrazola-9(3,1)-naphthalenacyclotridecaphane-1^2-carboxylic acid] | 2 nM | 52 nM | 19 nM | 28.0 μL/min/mg protein | 19.6 μL/min/mg protein | <2.8 μL/min/mg protein | 5.4 nM | – | – | – | – | – | – | –
3 | Cc1c2c(nn1C)CSCc1cc(n(C)n1)CSc1cc(c3ccccc3c1)OCCCc1c(C(=O)O)n(C)c3c-2c(Cl)ccc13 [AZD5991, (Z)-16-chloro-11,21,25,61-tetramethyl-11H,21H,61H-10-oxa-4,8-dithia-1(7,3)-indola-2(4,3),6(3,5)-dipyrazola-9(3,1)-naphthalenacyclotridecaphane-12-carboxylic acid, reference compound] | – | – | – | – | – | – | – | 148 nM | 47 nM | 20.8 µL/min/mg | 16.6 µL/min/mg | < 2.8 µL/min/mg | 29 nM | < 1 µg/mL
4 | Cc1c(C(=O)O)n2c3ccc(Cl)c(c13)-c1c(nn3c1COCC3)CSCc1cc(n(C)n1)CSc1cc(c3ccc(F)cc3c1)OCCC2 [Cpd. No. 4, (Z)-1^5-chloro-9^6-fluoro-1^3,6^1-dimethyl-2^6,2^7-dihydro-1^1H,24H,6^1H-10-oxa-4,8-dithia-2(3,2)-pyrazolo[5,1-c][1,4]oxazina-1(4,1)-indola-6(3,5)-pyrazola-9(3,1)-naphthalenacyclotridecaphane-1^2-carboxylic acid] | 14 nM | – | – | – | – | – | – | 438 nM | 49 nM | 41.2 µL/min/mg | 19.8 µL/min/mg | 13.8 µL/min/mg | – | < 1 µg/mL
5 | COCCn1nc2c(c1C)-c1c(Cl)ccc3c1c(C)c(C(=O)O)n3CCCOc1cc(cc3ccccc13)SCc1cc(nn1C)CSC2 [Cpd. No. 11, (Z)-1^5-chloro-2^1-(2-methoxyethyl)-1^3,2^5,6^1-trimethyl-1^1H,2^1H,6^1H-10-oxa-4,8-dithia-1(4,1)-indola-2(4,3),6(3,5)-dipyrazola-9(3,1)-naphthalenacyclotridecaphane-1^2-carboxylic acid] | 15 nM | – | – | – | – | – | – | 171 nM | 68 nM | 145 µL/min/mg | 35.4 µL/min/mg | 39.6 µL/min/mg | – | < 1 µg/mL
6 | Cc1c(C(=O)O)n2c3ccc(C#N)c(c13)-c1c(nn(C)c1C)CSCc1cc(n(C)n1)CSc1cc(c3ccc(F)cc3c1)OCCC2 [Cpd. No. 20, (Z)-1^5-cyano-9^6-fluoro-1^3,2^1,2^5,6^1-tetramethyl-1^1H-1,2^1H,6^1H-10-oxa-4,8-dithia-1(4,1)-indola-2(4,3),6(3,5)-dipyrazola-9(3,1)-naphthalenacyclotridecaphane-1^2-carboxylic acid] | 14 nM | – | – | – | – | – | – | 613 nM | 611 nM | – | – | – | 45 nM | –
7 | CNC(=O)Cn1nc(C)c2c1CSCc1cc(n(C)n1)CSc1cc(c3ccccc3c1)OCCCn1c(C(=O)O)c(C)c3c-2c(Cl)ccc31 [Cpd. No. 26, (Z)-1^5-chloro-1^3,2^3,6^1-trimethyl-2^1-(2-(methylamino)-2-oxoethyl)-1^1H,2^1H,6^1H-10-oxa-4,8-dithia-1(4,1)-indola-2(4,5),6(3,5)-dipyrazola-9(3,1)-naphthalenacyclotridecaphane-1^2-carboxylic acid] | 14 nM | – | – | – | – | – | – | 992 nM | 300 nM | 41.2 µL/min/mg | 14.2 µL/min/mg | 12.8 µL/min/mg | – | < 1 µg/mL
8 | Cc1c(C(=O)O)n2c3ccc(Cl)c(c13)-c1c(nn(C)c1C)CN(S(C)(=O)=O)Cc1cc(n(C)n1)CSc1cc(c3ccc(F)cc3c1)OCCC2 [Cpd. No. 32, (Z)-1^5-chloro-9^6-fluoro-1^3,2^1,2^5,6^1-tetramethyl-4-(methylsulfonyl)-1^1-H,2^1H, 6′H-10-oxa-8-thia-4-aza-1(4,1)-indola-2(4,3),6(3,5)-dipyrazola-9(3,1)-naphthalenacyclotridecaphane-1^2-carboxylic acid] | 36 nM | 542 nM | 213 nM | 35.0 μL/min/mg protein | – | – | – | – | – | – | 10.8 µL/min/mg | 4.4 µL/min/mg | – | > 400 µg/mL
9 | Cc1c(C(=O)O)n2c3ccc(Cl)c(c13)-c1c(nn(C)c1C(F)F)CN(S(C)(=O)=O)Cc1cc(n(C)n1)CSc1cc(c3ccc(F)cc3c1)OCCC2 [Cpd. No. 45, (Z)-1^5-chloro-2^5-(difluoromethyl)-9^6-fluoro-1^3,2^1,6^1-trimethyl-4-(methylsulfonyl)-1^1H,2^1H,6^1H-10-oxa-8-thia-4-aza-1(4,1)-indola-2(4,3),6(3,5)-dipyrazola-9(3,1)-naphthalenacyclotridecaphane-1^2-carboxylic acid] | 16 nM | – | – | – | – | – | – | 350 nM | 253 nM | 21.4 µL/min/mg | 12.6 µL/min/mg | < 2.8 µL/min/mg | – | 94 µg/mL (≈ 119 µM)
10 | Cc1c(C(=O)O)n2c3ccc(Cl)c(c13)-c1c(nn(C)c1C)CN(Cc1ncco1)Cc1cc(n(C)n1)CSc1cc(c3ccc(F)cc3c1)OCCC2 [Cpd. No. 52, (Z)-1^5-chloro-9^6-fluoro-1^3,2^1,2^5,6^1-tetramethyl-4-(oxazol-2-ylmethyl)-1^1H,2^1H,6^1H-10-oxa-8-thia-4-aza-1(4,1)-indola-2(4,3),6(3,5)-dipyrazola-9(3,1)-naphthalenacyclotridecaphane-1^2-carboxylic acid] | 21 nM | – | – | – | – | – | – | 699 nM | 87 nM | 53 µL/min/mg | 29.8 µL/min/mg | 28.4 µL/min/mg | – | 4 µg/mL (≈ 5.3 µM)
